Reference: patent US4288609A, “Quaternary ammonium derivatives of adamantane with antimicrobic activity” (priority 1976, dated 1981)

How the values were obtained:
Proteus Vulc. ATCC 881 = assay: M.I.C. in vitro, gram- Proteus Vulc. (Table 1); type: cell-based
Procedure: (§1) The method for evaluating the activity in vitro against bacteria, fungi and protozoa consists in introducing calculated quantities of the substance, the activity of which it is desired to test, into culture media already inoculated with a predetermined number of test germs.
(§2) After 24 or 48 hours of incubation at 30° or 37° C., according to the micro-organism being tested, it is possible to evaluate the growth of the same in the culture broth; in this manner the minimum concentration (M.I.C.) which inhibits the growth of the micro-organisms in vitro is determined.
(§3) In table 1 there are recorded the M.I.C. values in γ/ml of the products subject of the present invention, against certain gram+ and gram- bacterial strains, some of which are pathogenic towards human beings.

Esch. Coli. SKF 12140 = assay: M.I.C. in vitro, gram- Esch. Coli (Table 1); type: cell-based, Escherichia Coli
Procedure: as §1, §2, §3

Trich. Foetus ISM 66/23 = assay: MIC protozoa, Trichomonas foetus (Table 2); type: cell-based; details: +10% serum (head); Kupferberg Trichomonas broth with 5% of horse serum
Procedure: as §1, §2
(§4) Inoculation with Trichomonas vaginalis and Trichomonas foetus, obtained from cultures transplanted every other day to make them lively, was effected in a ratio of 3.5% of the volume of medium used.
(§5) For the fungi Sabourand broth was used as a culture medium, whilst for the protozoa Kupferberg Trichomonas broth with 5% of horse serum was used.

[1] = system: Trich. Vaginalis ISM 66/22; assay: MIC protozoa, Trichomonas vaginalis (Table 2); type: cell-based; details: +10% serum (head); Kupferberg Trichomonas broth with 5% of horse serum
Procedure: as §1, §2, §4, §5

Pseudom.Aer. ATCC 1014 = assay: M.I.C. in vitro, gram- Pseudom. Aer. (Table 1); type: cell-based, Pseudomonas Aeruginosa
Procedure: as §1, §2, §3

Candida Albic. SKF 2270 = assay: MIC yeasts, Candida albicans (Table 2); type: cell-based; details: Sabourand broth
Procedure: as §1, §2
(§6) Inoculation with Candida albicans or Candida pseudotropicalis was made by diluting cultures grown for 24 h at 30° C. (cellular density inoculated 10^3 /ml).
as §5

[2] = system: Trych. Mentagr. 1st.Pastuer; assay: MIC mildews, Trichophyton mentagrophytes (Table 2); type: cell-based; details: Sabourand broth
Procedure: as §1, §2
(§7) Inoculation with Trichophyton mentagrophytes and Microsporum canis was effected in a ratio of 1% of the volume of medium used.
as §5

Diplococcus Pneum. ISM = assay: M.I.C. in vitro, gram+ Diplococcus Pneum. (Table 1); type: cell-based
Procedure: as §1, §2, §3

Klens. Pneum. ISM = assay: M.I.C. in vitro, gram- Klens. Pneum. (Table 1); type: cell-based
Procedure: as §1, §2, §3

mice = assay: Acute oral toxicity in mice (Table 4); details: oral, mice, 14 days
Procedure: The substances were administered orally to groups of 10 female mice CF1 of average weight of about 20 grams, in aqueous solution and in such way that the total volume administered would be in each case 1 ml/100 g of weight.

[3] = system: Streptococ. Henclyt. 0203; assay: M.I.C. in vitro, gram+ Streptococ. Henclyt. (Table 1); type: cell-based
Procedure: as §1, §2, §3

[4] = system: Candida Pseudotrop. ATCC 2512; assay: MIC yeasts, Candida pseudotropicalis (Table 2); type: cell-based; details: Sabourand broth
Procedure: as §1, §2, §6, §5

Staph.Aureus Tour = assay: M.I.C. in vitro, gram+ Staph. Aureus (Table 1); type: cell-based, Staphylococcus Aureus
Procedure: as §1, §2, §3

[5] = system: Nicrosporum Canis ATCC 11621; assay: MIC mildews, Microsporum canis (Table 2); type: cell-based; details: Sabourand broth
Procedure: as §1, §2, §7, §5

CCCCCCCCCC[N+](C)(C)CCOC(=O)C12CC3CC(CC(C3)C1)C2 (single isomer, unassigned) [Example 2, n-Decyl-dimethyl-(1-adamantane-carboxy)-ethyl-ammonium chloride]
M.I.C. (Proteus Vulc. ATCC 881; +10% serum): 100 µg/mL | M.I.C. (Proteus Vulc. ATCC 881; without serum): 20 µg/mL | M.I.C. (Esch. Coli. SKF 12140; +10% serum): 100 µg/mL | M.I.C. (Esch. Coli. SKF 12140; without serum): 10 µg/mL | MIC (Trich. Foetus ISM 66/23): 10 µg/mL | MIC [1]: 20 µg/mL | M.I.C. (Pseudom.Aer. ATCC 1014; +10% serum): 100 µg/mL | M.I.C. (Pseudom.Aer. ATCC 1014; without serum): 50 µg/mL | MIC (Candida Albic. SKF 2270; +10% serum): 50 µg/mL | MIC (Candida Albic. SKF 2270; without serum): 5 µg/mL | MIC ([2]; +10% serum): 20 µg/mL | MIC ([2]; without serum): 0.5 µg/mL | M.I.C. (Diplococcus Pneum. ISM; +10% serum): 10 µg/mL | M.I.C. (Diplococcus Pneum. ISM; without serum): 2 µg/mL | M.I.C. (Klens. Pneum. ISM; +10% serum): 100 µg/mL | M.I.C. (Klens. Pneum. ISM; without serum): 20 µg/mL | LD50 (mice): 1020 mg/kg | M.I.C. ([3]; +10% serum): 1 µg/mL | M.I.C. ([3]; without serum): 0.2 µg/mL | MIC ([4]; +10% serum): 50 µg/mL | MIC ([4]; without serum): 0.5 µg/mL | M.I.C. (Staph.Aureus Tour; +10% serum): 5 µg/mL | M.I.C. (Staph.Aureus Tour; without serum): 0.2 µg/mL | MIC ([5]; +10% serum): 20 µg/mL | MIC ([5]; without serum): 0.5 µg/mL
